In US7772263B2, “Compounds for the treatment of inflammatory disorders” (Schering Corporation, priority 2006, dated 2010) one finds Ki data, which are given here for 65 molecules.

Each structure is given as a SMILES string.

T1 sequence (P78536 215-477 S266A/N452Q limits assumed): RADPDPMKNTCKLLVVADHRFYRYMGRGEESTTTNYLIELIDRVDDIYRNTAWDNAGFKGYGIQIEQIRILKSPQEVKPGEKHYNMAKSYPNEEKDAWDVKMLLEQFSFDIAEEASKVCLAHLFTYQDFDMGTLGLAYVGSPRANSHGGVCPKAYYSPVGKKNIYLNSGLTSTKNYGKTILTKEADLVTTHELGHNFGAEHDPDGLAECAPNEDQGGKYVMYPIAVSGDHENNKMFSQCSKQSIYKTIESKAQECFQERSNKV

One assay has as its target T1, purified catalytic domain of recombinant human TACE (rhTACEc) (Homo sapiens, UniProt P78536, N452Q/S266A).
T1 construct: rhTACEc, Residue 215 to 477 with two mutation (S266A and N4520) and a 6×His tail; 6xHis (C); made in house; host or cells: baculovirus/Hi5 insect cells
The assay is described as follows: TACE kinetic assay, cleavage of internally quenched fluorescent peptide substrate SPDL-3. The format is biochemical. To be noted: TACE inhibition, Table 1001; read-out: Ki Rating.
One may read the Ki as the dissociation constant of the complex between target and ligand, obtained from inhibition or displacement. With `COc1ccc2c(c1)C(=O)N(C[C@@]1(C#Cc3cccnc3C)NC(=O)NC1=O)C2` [Compound 1003], the Ki was less than 5 nM. The same measure, in the same setting: the result for `O=C1NC(=O)[C@@](C#Cc2cccnc2)(CN2Cc3ccc(Cl)cc3C2=O)N1` [Compound 1004] reads less than 5 nM. Still for that read-out and setting: the result for `COc1ccc2c(c1)C(=O)N(C[C@@]1(C#Cc3cncc(C)c3)NC(=O)NC1=O)C2` [Compound 1005] reads less than 5 nM.

The assay is the same for the next values; noted with them: TACE; class letters A-D; read-out: Ki Rating.
For the molecule `COc1ccc2c(c1)C(=O)N(C[C@@]1(C#Cc3cncc(Cl)c3)NC(=O)NC1=O)C2` [Compound 1006], the Ki was less than 5 nM. On the same count and under the same terms, the same measure for `COc1ccc2c(c1)C(=O)N(C[C@@]1(C#Cc3ccc(F)cc3C)NC(=O)NC1=O)C2` [Compound 1007]: less than 5 nM; for `COc1ccc2c(c1)C(=O)N(C[C@@]1(C#Cc3ccc4nccnc4c3)NC(=O)NC1=O)C2` [Compound 1008]: less than 5 nM. For the molecule `COc1ccc2c(c1)C(=O)N(C[C@@]1(C#Cc3ccc4nc(N)[nH]c4c3)NC(=O)NC1=O)C2` [Compound 1009], the Ki was less than 5 nM. Take `COc1ccc2c(c1)C(=O)N(C[C@@]1(C#Cc3ccc4c(c3)COC4=O)NC(=O)NC1=O)C2` [Compound 1010]: the Ki was less than 5 nM. In the case of `COc1ccc2c(c1)C(=O)N(C[C@@]1(C#Cc3ccc4nc(C)[nH]c4c3)NC(=O)NC1=O)C2` [Compound 1011], the Ki was less than 5 nM. On the same count and under the same terms, the same measure for `COc1ccc2c(c1)C(=O)N(C[C@@]1(C#Cc3ccc4[nH]cnc4c3)NC(=O)NC1=O)C2` [Compound 1012]: less than 5 nM. Still for that read-out and setting: the same measure for `COc1ccc2c(c1)C(=O)N(C[C@@]1(C#Cc3cnc4[nH]c(=O)[nH]c4c3)NC(=O)NC1=O)C2` [Compound 1013]: less than 5 nM; for `COc1ccc2c(c1)C(=O)N(C[C@@]1(C#Cc3cccc4[nH]ncc34)NC(=O)NC1=O)C2` [Compound 1014]: less than 5 nM. The same measure, in the same setting: the result for `COc1ccc2c(c1)C(=O)N(C[C@@]1(C#Cc3cccc4cn[nH]c34)NC(=O)NC1=O)C2` [Compound 1015] reads less than 5 nM; that for `COc1ccc2c(c1)C(=O)N(C[C@@]1(C#Cc3ccc4[nH]c(=O)sc4c3)NC(=O)NC1=O)C2` [Compound 1016], less than 5 nM. In the case of `COc1ccc2c(c1)C(=O)N(C[C@@]1(C#Cc3ccc4c(c3)sc(=N)n4C)NC(=O)NC1=O)C2` [Compound 1017], the Ki is less than 5 nM.

Take `COc1ccc2c(c1)C(=O)N(C[C@@]1(C#Cc3cccnc3C#N)NC(=O)NC1=O)C2` [Compound 1018]: the Ki was less than 5 nM. Still for that read-out and setting: the same measure for `COc1ccc2c(c1)C(=O)N(C[C@@]1(C#Cc3ccc4c(c3)C(=O)NC4=O)NC(=O)NC1=O)C2` [Compound 1019]: less than 5 nM. Same read-out and setting: the same measure for `COc1ccc2c(c1)C(=O)N(C[C@]1(C#Cc3ccc(SC(F)(F)F)cc3)NC(=O)NC1=O)C2` [Compound 1036]: greater than 100 nM. Still for that read-out and setting: the result for `O=C1NC(=O)[C@@](C#Cc2ccc(F)cc2)(CN2Cc3ccc(F)cc3C2=O)N1` [Compound 1037] reads less than 5 nM. In the case of `COc1ccc2c(c1)C(=O)N(C[C@@]1(C#Cc3ccc(SC(F)(F)F)cc3)NC(=O)NC1=O)C2` [Compound 1038], the Ki is less than 5 nM. The same measure, in the same setting: the same measure for `COc1ccc2c(c1)C(=O)N(C[C@@]1(C#Cc3ccc(S(=O)(=O)C(F)(F)F)cc3)NC(=O)NC1=O)C2` [Compound 1039]: 5 to 25 nM; for `COc1ccc2c(c1)C(=O)N(C[C@@]1(C#Cc3cccc(O)c3)NC(=O)NC1=O)C2` [Compound 1040]: less than 5 nM; for `O=C1NC(=O)[C@@](C#Cc2cccc(F)c2)(CN2Cc3ccc(F)cc3C2=O)N1` [Compound 1041]: less than 5 nM. Same read-out and setting: the result for `O=C1NC(=O)[C@@](C#Cc2ccc(F)cc2F)(CN2Cc3ccc(F)cc3C2=O)N1` [Compound 1042] reads less than 5 nM. On the same count and under the same terms, the result for `COc1ccc(C#C[C@]2(CN3Cc4ccc(OC)cc4C3=O)NC(=O)NC2=O)cc1` [Compound 1043] reads less than 5 nM; that for `COc1ccc2c(c1)C(=O)N(C[C@@]1(C#Cc3cccc(C)c3)NC(=O)NC1=O)C2` [Compound 1044], less than 5 nM. As to `COc1ccc2c(c1)C(=O)N(C[C@@]1(C#Cc3ccc(C#N)cc3)NC(=O)NC1=O)C2` [Compound 1045], the Ki is less than 5 nM. The same measure, in the same setting: the same measure for `CCOc1cccc(C#C[C@]2(CN3Cc4ccc(OC)cc4C3=O)NC(=O)NC2=O)c1` [Compound 1046]: less than 5 nM; for `COc1ccc2c(c1)C(=O)N(C[C@@]1(C#Cc3ccc4c(c3)CCO4)NC(=O)NC1=O)C2` [Compound 1047]: less than 5 nM. On to `COc1ccc2c(c1)C(=O)N(C[C@@]1(C#Cc3cccc(CO)c3)NC(=O)NC1=O)C2` [Compound 1048], for which the Ki was less than 5 nM. Still for that read-out and setting: the same measure for `COc1ccc2c(c1)C(=O)N(C[C@@]1(C#Cc3ccc(Cl)s3)NC(=O)NC1=O)C2` [Compound 1049]: less than 5 nM; for `CCOc1ccc(C#C[C@]2(CN3Cc4ccc(OC)cc4C3=O)NC(=O)NC2=O)cc1` [Compound 1050]: less than 5 nM.

As for `O=C1NC(=O)[C@](C#Cc2cccc(F)c2)(CN2Cc3ccc(F)cc3C2=O)N1` [Compound 1051], the Ki was 25 to 100 nM. For the molecule `O=C1NC(=O)[C@](C#Cc2ccc(F)cc2F)(CN2Cc3ccc(F)cc3C2=O)N1` [Compound 1052], the Ki fell in the range of 25 to 100 nM.

Turning to `COc1ccc2c(c1)C(=O)N(C[C@@]1(C#Cc3ccc4oc(C)cc4c3)NC(=O)NC1=O)C2` [Compound 1053], the Ki is less than 5 nM. Still for that read-out and setting: the result for `COc1ccc2c(c1)C(=O)N(C[C@@]1(C#Cc3cc(Cl)ccc3OC)NC(=O)NC1=O)C2` [Compound 1054] reads less than 5 nM. The same measure, in the same setting: the same measure for `COCc1cccc(C#C[C@]2(CN3Cc4ccc(OC)cc4C3=O)NC(=O)NC2=O)c1` [Compound 1055]: less than 5 nM; for `COc1ccc2c(c1)C(=O)N(C[C@@]1(C#Cc3c(OC)ccc4c(C#N)cccc34)NC(=O)NC1=O)C2` [Compound 1056]: less than 5 nM; for `COc1ccc2c(c1)C(=O)N(C[C@@]1(C#Cc3ccc(OC(C)C)cc3)NC(=O)NC1=O)C2` [Compound 1057]: less than 5 nM. Still for that read-out and setting: the result for `COc1ccc2c(c1)C(=O)N(C[C@@]1(C#Cc3ccc(OCC4CC4)cc3)NC(=O)NC1=O)C2` [Compound 1058] reads less than 5 nM; that for `COc1ccc2c(c1)C(=O)N(C[C@@]1(C#Cc3cccc(COCC4CC4)c3)NC(=O)NC1=O)C2` [Compound 1059], less than 5 nM; that for `COc1ccc2c(c1)C(=O)N(C[C@@]1(C#Cc3ccc(C(C)=O)s3)NC(=O)NC1=O)C2` [Compound 1060], less than 5 nM. As for `COc1ccc2c(c1)C(=O)N(C[C@@]1(C#Cc3ccc(C(C)O)s3)NC(=O)NC1=O)C2` (stereo partly shown) [Compound 1061], the Ki is less than 5 nM. The same measure, in the same setting: the result for `COc1ccc2c(c1)C(=O)N(C[C@@]1(C#Cc3ccccc3C)NC(=O)NC1=O)C2` [Compound 1062] reads less than 5 nM; that for `COc1ccc2c(c1)C(=O)N(C[C@@]1(C#Cc3cncc(O)c3)NC(=O)NC1=O)C2` [Compound 1063], less than 5 nM; that for `COc1ccc2c(c1)C(=O)N(C[C@@]1(C#Cc3ccc(C#N)s3)NC(=O)NC1=O)C2` [Compound 1064], less than 5 nM. For `COc1ccc2c(c1)C(=O)N(C[C@@]1(C#Cc3ccc(C(=O)NC4CC4)cc3)NC(=O)NC1=O)C2` [Compound 1065], the Ki was less than 5 nM. On the same count and under the same terms, the result for `COc1ccc2c(c1)C(=O)N(C[C@]1(C#Cc3cncc(O)c3)NC(=O)NC1=O)C2` [Compound 1066] reads greater than 100 nM. Still for that read-out and setting: the result for `COc1ccc2c(c1)C(=O)N(C[C@]1(C#Cc3ccc(C(=O)NC4CC4)cc3)NC(=O)NC1=O)C2` [Compound 1067] reads greater than 100 nM; that for `COc1ccc2c(c1)C(=O)N(C[C@]1(C#Cc3ccc(C#N)s3)NC(=O)NC1=O)C2` [Compound 1068], greater than 100 nM; that for `COc1ccc2c(c1)C(=O)N(C[C@@]1(C#Cc3ccc4[nH]c(=O)[nH]c4c3)NC(=O)NC1=O)C2` [Compound 1069], less than 5 nM. On the same count and under the same terms, the same measure for `COc1ccc2c(c1)C(=O)N(C[C@@]1(C#Cc3csc(CN)c3)NC(=O)NC1=O)C2` [Compound 1070]: less than 5 nM; for `COc1ccc2c(c1)C(=O)N(C[C@@]1(C#Cc3cc(Cl)c(Br)s3)NC(=O)NC1=O)C2` [Compound 1071]: less than 5 nM.

`COc1ccc2c(c1)C(=O)N(C[C@@]1(C#Cc3ccc(CO)s3)NC(=O)NC1=O)C2` [Compound 1072]: the Ki is less than 5 nM. On the same count and under the same terms, the same measure for `COc1ccc2c(c1)C(=O)N(C[C@]1(C#Cc3ccc(C(C)N)cc3)NC(=O)NC1=O)C2` (stereo partly shown) [Compound 1073]: greater than 100 nM; for `CNCc1cc(C#C[C@@]2(CN3Cc4ccc(OC)cc4C3=O)NC(=O)NC2=O)cs1` [Compound 1074]: greater than 100 nM. In the case of `COc1ccc2c(c1)C(=O)N(C[C@]1(C#Cc3ccc(C(C)O)cc3)NC(=O)NC1=O)C2` (stereo partly shown) [Compound 1075], the Ki is greater than 100 nM. On the same count and under the same terms, the same measure for `COc1ccc2c(c1)C(=O)N(C[C@@]1(C#Cc3ccc([C@H](C)N)cc3)NC(=O)NC1=O)C2` [Compound 1076]: less than 5 nM; for `CNCc1cc(C#C[C@@]2(CN3Cc4ccc(OC)cc4C3=O)NC(=O)NC2=O)cs1` [Compound 1077]: less than 5 nM. With `COc1ccc2c(c1)C(=O)N(C[C@@]1(C#Cc3ccc(C(C)O)cc3)NC(=O)NC1=O)C2` (stereo partly shown) [Compound 1078], the Ki was less than 5 nM. The same measure, in the same setting: the result for `COc1ccc2c(c1)C(=O)N(C[C@@]1(C#Cc3cnccc3CO)NC(=O)NC1=O)C2` [Compound 1079] reads less than 5 nM; that for `COc1ccc2c(c1)C(=O)N(C[C@@]1(C#Cc3sccc3Cl)NC(=O)NC1=O)C2` [Compound 1080], less than 5 nM. The same measure, in the same setting: the same measure for `CON=Cc1ccc(C#C[C@@]2(CN3Cc4ccc(OC)cc4C3=O)NC(=O)NC2=O)cc1` [Compound 1081]: greater than 100 nM; for `CO/N=C(/C)c1ccc(C#C[C@]2(CN3Cc4ccc(OC)cc4C3=O)NC(=O)NC2=O)s1` [Compound 1082]: less than 5 nM; for `CO/N=C(\C)c1ccc(C#C[C@]2(CN3Cc4ccc(OC)cc4C3=O)NC(=O)NC2=O)s1` [Compound 1083]: less than 5 nM.

Staying with this assay, now noted: rhTACEc 70 pM, 30 μM SPDL-3, 90 min pre-incubation at 25° C.; read-out: Ki (nM), TACE inhibitory activity.
Turning to `COc1ccc2c(c1)C(=O)N(C[C@@]1(C#Cc3cccnc3C)NC(=O)NC1=O)C2` [Compound 1003], the Ki worked out at 0.11 nM.

Consider `COc1ccc2c(c1)C(=O)N(C[C@@]1(C#Cc3ccc4nc(N)[nH]c4c3)NC(=O)NC1=O)C2` [Compound 1009], for which the Ki amounted to 1.33 nM.
